Assay [1] relates to COLO 205 colorectal tumor cells. The experiment in a line: Tumor cell viability inhibition assay (CellTiter-Glo 2.0, 72 hours). It is filed as cell-based. The conditions noted are these: Homo sapiens, COLO 205, 72 h, COLO 205 cell viability. In short, it runs like this:
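IC50 derived by 4-parameter fitting after normalizing luminescence to DMSO and max-inhibition wells. Compounds tested as 11 concentrations in 4-fold steps on COLO 205 cells seeded at 1500 per well in RPMI-1640/10% FBS; ATP content measured with CellTiter-Glo 2.0 after 72 h.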

Assay [2] deals with cap-dependent translation in Flp-In-293 reporter cells. The experiment in a line: Cellular cap-dependent translation inhibition assay (dual luciferase assay, DLA; Fluc/Rluc ratio, 24 hours). The assay is classed as cell-based. Conditions: Homo sapiens, Flp-In-293, 24 h, dual luciferase assay, Flp-In-293 reporter cells, 24 hours, Fluc/Rluc ratio; read-out: DLA 205 IC50.
The next assay concerns the target T1, human eIF4E protein (Homo sapiens, UniProt P06730).
T1 construct: purchased Novus NBP-45314
The experiment in a line: Biochemical competitive binding assay (TR-FRET competition, EDA-m7GDP-ATTO-647N probe). The conditions noted are these: read-out: hEIF4E TR-FRET IC50. In short, it runs like this: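 IC50 values come from 4-parameter fits of the normalized 665/620 nm TR-FRET ratio. Compound was first incubated 15 min with 4 nM recombinant His-eIF4E bound to 2.5 nM Eu-anti-His antibody, then 15 min with 5 nM m7GDP-ATTO-647N tracer, in pH 7.5 HEPES buffer with 100 mM KCl, Tween-20 and BSA.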

SMILES strings stand for the structures. pIC50: −log10 of the molar value. A value given as a limit tells only on which side of the number the result lay.

This is an account of results in patent US20240246918A1, “COMPOUNDS AND COMPOSITIONS AS EIF4E INHIBITORS AND THE USES THEREOF” (Ribometrix, Inc., priority 2022, published 2024).

T1 sequence (P06730 whole entry): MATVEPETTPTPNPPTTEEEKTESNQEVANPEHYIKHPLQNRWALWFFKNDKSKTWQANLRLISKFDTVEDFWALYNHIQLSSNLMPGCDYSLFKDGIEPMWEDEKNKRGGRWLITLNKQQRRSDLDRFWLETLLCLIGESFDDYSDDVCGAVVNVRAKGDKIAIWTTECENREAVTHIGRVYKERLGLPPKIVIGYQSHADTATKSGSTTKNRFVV

On to `Cc1cc(-c2cc(Cl)ccc2OCCn2c(C)nc3c(c2=O)CC(N(C)Cc2ccncc2)CC3)c2scc(C(=O)O)c2n1` (stereo not drawn) [Compound 16], for which the pIC50 in assay [1] is greater than 5.30; in assay [2], greater than 6.00; at human eIF4E protein, greater than 7.00.

On to `Cc1cc(-c2cc(Cl)ccc2OCCn2c(C)nc3c(c2=O)CC(N2CC(N4CCOCC4)C2)CC3)c2scc(C(=O)O)c2n1` (stereo not drawn) [Compound 17], for which the pIC50 was 4.70 to 5.30 in assay [1], 5.30 to 6.00 in assay [2] and greater than 7.00 at human eIF4E protein.

Take `Cc1cc(-c2cc(Cl)ccc2OCCn2c(C)nc3c(c2=O)CC(N2CC4COCC4C2)CC3)c2scc(C(=O)O)c2n1` (stereo not drawn) [Compound 19]: the values for the pIC50 (in assay [1]; in assay [2]; on human eIF4E protein) were greater than 5.30, greater than 6.00 and greater than 7.00, respectively.

As to `Cc1cc(-c2cc(Cl)ccc2OCCn2c(C)nc3c(c2=O)CC(N2CC4(COC4)C2)CC3)c2scc(C(=O)O)c2n1` (stereo not drawn) [Compound 20], the pIC50 was greater than 5.30 in assay [1], greater than 6.00 in assay [2] and greater than 7.00 at human eIF4E protein.

In the case of `Cc1cc(-c2cc(Cl)ccc2OCCn2c(C)nc3c(c2=O)CC(N2CC4(CCN(C)C4)C2)CC3)c2scc(C(=O)O)c2n1` (stereo not drawn) [Compound 21], the pIC50 in assay [1] was less than 4.70; in assay [2], less than 5.30; at human eIF4E protein, greater than 7.00.

For the compound `Cc1cc(-c2cc(Cl)ccc2OCCn2c(C)nc3c(c2=O)CC(N2CC4(CCN(C)CC4)C2)CC3)c2scc(C(=O)O)c2n1` (stereo not drawn) [Compound 22], the pIC50 in assay [1] was less than 4.70; in assay [2] it was 5.30 to 6.00; on human eIF4E protein it was greater than 7.00.

For the compound `Cc1cc(-c2cc(Cl)ccc2OCCn2c(C)nc3c(c2=O)CC(N2CC(C)(N(C)C)C2)CC3)c2scc(C(=O)O)c2n1` (stereo not drawn) [Compound 23], the pIC50 was less than 4.70 in assay [1], less than 5.30 in assay [2] and greater than 7.00 at human eIF4E protein.

As for `Cc1cc(-c2cc(Cl)ccc2OCCn2c(C)nc3c(c2=O)CC(N2CCC4(COC4)C2)CC3)c2scc(C(=O)O)c2n1` (stereo not drawn) [Compound 26], the negative logarithm of the IC50 (pIC50) in assay [1] was greater than 5.30; in assay [2] it was greater than 6.00; at human eIF4E protein, greater than 7.00.

As for `Cc1cc(-c2cc(Cl)ccc2OCCn2c(C)nc3c(c2=O)CC(N2CC4CN(C)CC4C2)CC3)c2scc(C(=O)O)c2n1` (stereo not drawn) [Compound 27], the values for the pIC50 (in assay [1]; in assay [2]; at human eIF4E protein) were less than 4.70, less than 5.30 and greater than 7.00, respectively.

Take `COC1CN(C2CCc3nc(C)n(CCOc4ccc(Cl)cc4-c4cc(C)nc5c(C(=O)O)csc45)c(=O)c3C2)C1` (stereo not drawn) [Compound 28]: the pIC50 in assay [1] is greater than 5.30; in assay [2], greater than 6.00; at human eIF4E protein, greater than 7.00.

Take `Cc1cc(-c2cc(Cl)ccc2OCCn2c(C)nc3c(c2=O)CC(N(C)CC2COC2)CC3)c2scc(C(=O)O)c2n1` (stereo not drawn) [Compound 29]: the pIC50 in assay [1] is greater than 5.30; in assay [2], greater than 6.00; on human eIF4E protein, greater than 7.00.

Regarding `Cc1nc2c(c(=O)n1CCOc1ccc(Cl)cc1-c1ccnn3c(C(=O)O)ccc13)CC(N(C)C)CC2` (stereo not drawn) [Compound 30, 4-[5-chloranyl-2-[2-[6-[di(methyl)amino]-2-methyl-4-oxidanylidene-5,6,7,8-tetrahydroquinazolin-3-yl]ethoxy]phenyl]pyrrolo[1,2-b]pyridazine-7-carboxylic acid], the figures for the pIC50 (in assay [1]; in assay [2]; on human eIF4E protein) were less than 4.70, 5.30 to 6.00 and greater than 7.00, respectively.

As for `Cc1cc(-c2cc(Cl)ccc2OCCn2c(C)nc3c(c2=O)CC(N2CCC(F)(F)CC2)CC3)c2scc(C(=O)O)c2n1` (stereo not drawn) [Compound 32], the values for the pIC50 (in assay [1]; in assay [2]; on human eIF4E protein) were greater than 5.30, greater than 6.00 and greater than 7.00, respectively.

With `COCCN(C)C1CCc2nc(C)n(CCOc3ccc(Cl)cc3-c3cc(C)nc4c(C(=O)O)csc34)c(=O)c2C1` (stereo not drawn) [Compound 33], the pIC50 is greater than 5.30 in assay [1], greater than 6.00 in assay [2] and greater than 7.00 on human eIF4E protein.

On to `Cc1cc(-c2cc(Cl)ccc2OCCn2c(C)nc3c(c2=O)CC(N2CCC4(CN(C)C4)C2)CC3)c2scc(C(=O)O)c2n1` (stereo not drawn) [Compound 34], for which the negative-log IC50 (pIC50) in assay [1] is less than 4.70; in assay [2] it was less than 5.30; at human eIF4E protein, greater than 7.00.

`Cc1cc(-c2cc(Cl)ccc2OCCn2c(C)nc3c(c2=O)CC(N2CC4(CN(C)C4)C2)CC3)c2scc(C(=O)O)c2n1` (stereo not drawn) [Compound 35]: the pIC50 in assay [1] is less than 4.70; in assay [2], less than 5.30; at human eIF4E protein, greater than 7.00.

Consider `Cc1cc(-c2cc(Cl)ccc2OCCn2c(C)nc3c(c2=O)CC(N(C)C)CC3)c2ccc(C(=O)O)n2n1` (stereo not drawn) [Compound 36, 4-[5-chloranyl-2-[2-[6-[di(methyl)amino]-2-methyl-4-oxidanylidene-5,6,7,8-tetrahydroquinazolin-3-yl]ethoxy]phenyl]-2-methyl-pyrrolo[1,2-b]pyridazine-7-carboxylic acid], for which the figures for the negative logarithm of the IC50 (pIC50) (in assay [1]; in assay [2]; on human eIF4E protein) were less than 4.70, less than 5.30 and greater than 7.00, respectively.

For the compound `Cc1cc(-c2cc(Cl)ccc2OCCn2c(C)nc3c(c2=O)CC(N(C)S(C)(=O)=O)CC3)c2scc(C(=O)O)c2n1` (stereo not drawn) [Compound 37], the negative logarithm of the IC50 (pIC50) in assay [1] was 4.70 to 5.30; in assay [2] it was less than 5.30; on human eIF4E protein, greater than 7.00.

For `CC(=O)N(C)C1CCc2nc(C)n(CCOc3ccc(Cl)cc3-c3cc(C)nc4c(C(=O)O)csc34)c(=O)c2C1` (stereo not drawn) [Compound 38], the pIC50 is less than 4.70 in assay [1], less than 5.30 in assay [2] and 6.30 to 7.00 at human eIF4E protein.

Regarding `Cc1cc(-c2cc(Cl)ccc2OCCn2c(C)nc3c(c2=O)CC(N(C)C)CC3)c2scc(C(=O)NS(C)(=O)=O)c2n1` (stereo not drawn) [Compound 39, 7-[5-chloranyl-2-[2-[6-[di(methyl)amino]-2-methyl-4-oxidanylidene-5,6,7,8-tetrahydroquinazolin-3-yl]ethoxy]phenyl]-5-methyl-N-methylsulfonyl-thieno[3,2-b]pyridine-3-carboxamide; 2,2,2-tris(fluorenyl)acetic acid], the pIC50 in assay [1] is greater than 5.30; in assay [2], greater than 6.00; at human eIF4E protein, greater than 7.00.

Turning to `Cc1cc(-c2cc(Cl)ccc2OCCn2c(C)nc3c(c2=O)CC(N(C)C2CC(F)(F)C2)CC3)c2scc(C(=O)O)c2n1` (stereo not drawn) [Compound 40, 7-[2-[2-[6-[[3,3-bis(fluorenyl)cyclobutyl]-methyl-amino]-2-methyl-4-oxidanylidene-5,6,7,8-tetrahydroquinazolin-3-yl]ethoxy]-5-chloranyl-phenyl]-5-methyl-thieno[3,2-b]pyridine-3-carboxylic acid; 2,2,2-tris(fluorenyl)acetic acid], the pIC50 in assay [1] was greater than 5.30; in assay [2], greater than 6.00; on human eIF4E protein it was greater than 7.00.

As for `Cc1cc(-c2cc(Cl)ccc2OCCn2c(C)nc3c(c2=O)CC(N(C)CCOC(F)(F)F)CC3)c2scc(C(=O)O)c2n1` (stereo not drawn) [Compound 41], the pIC50 was greater than 5.30 in assay [1], greater than 6.00 in assay [2] and greater than 7.00 at human eIF4E protein.

On to `Cc1cc(-c2cc(Cl)ccc2OCCn2c(C)nc3c(c2=O)CC(N2CCCCC2)CC3)c2ccc(C(=O)O)n2n1` (stereo not drawn) [Compound 45, 4-[5-chloranyl-2-[2-[2-methyl-4-oxidanylidene-6-(1-piperidyl)-5,6,7,8-tetrahydroquinazolin-3-yl]ethoxy]phenyl]-2-methyl-pyrrolo[1,2-b]pyridazine-7-carboxylic acid], for which the figures for the pIC50 (in assay [1]; in assay [2]; at human eIF4E protein) were greater than 5.30, greater than 6.00 and greater than 7.00, respectively.

Consider `Cc1cc(-c2cc(Cl)ccc2OCCn2c(C)nc3c(c2=O)CC(N(C)c2ccncc2)CC3)c2scc(C(=O)O)c2n1` (stereo not drawn) [Compound 47, 7-[5-chloranyl-2-[2-[2-methyl-6-[methyl(4-pyridyl)amino]-4-oxidanylidene-5,6,7,8-tetrahydroquinazolin-3-yl]ethoxy]phenyl]-5-methyl-thieno[3,2-b]pyridine-3-carboxylic acid; 2,2,2-tris(fluorenyl)acetic acid], for which the pIC50 was less than 4.70 in assay [1], less than 5.30 in assay [2] and greater than 7.00 on human eIF4E protein.

For `Cc1cc(-c2cc(Cl)ccc2OCCn2c(C)nc3c(c2=O)CC(N2CC(F)(F)C2)CC3)c2scc(C(=O)O)c2n1` (stereo not drawn) [Compound 49], the pIC50 was 4.70 to 5.30 in assay [1], 5.30 to 6.00 in assay [2] and 6.30 to 7.00 on human eIF4E protein.

With `Cc1cc(-c2cc(Cl)ccc2OCCn2c(C)nc3c(c2=O)CC(N2CCCC(F)(F)C2)CC3)c2scc(C(=O)O)c2n1` (stereo not drawn) [Compound 50], the figures for the pIC50 (in assay [1]; in assay [2]; at human eIF4E protein) were greater than 5.30, greater than 6.00 and greater than 7.00, respectively.

For the compound `Cc1cc(-c2cc(Cl)ccc2OCCn2c(C)nc3c(c2=O)CC(N2CCC(F)(F)CC2)CC3)c2scc(C(=O)NS(C)(=O)=O)c2n1` (stereo not drawn) [Compound 52], the pIC50 in assay [1] is greater than 5.30; in assay [2], greater than 6.00; at human eIF4E protein, greater than 7.00.

For the compound `Cc1cc(-c2cc(Cl)ccc2OCCn2c(C)nc3c(c2=O)CC(N2CCC(F)(F)C2)CC3)c2scc(C(=O)O)c2n1` (stereo not drawn) [Compound 53], the negative logarithm of the IC50 (pIC50) is greater than 5.30 in assay [1], greater than 6.00 in assay [2] and greater than 7.00 at human eIF4E protein.

As to `Cc1cc(-c2cc(Cl)ccc2OCCn2c(C)nc3c(c2=O)CC(N(C)CC(F)(F)F)CC3)c2scc(C(=O)O)c2n1` (stereo not drawn) [Compound 54], the results for the pIC50 (in assay [1]; in assay [2]; on human eIF4E protein) were 4.70 to 5.30, 5.30 to 6.00 and greater than 7.00, respectively.

In the case of `Cc1cc(-c2cc(Cl)ccc2OCCn2c(C)nc3c(c2=O)CC(N(C)CCOC(F)(F)F)CC3)c2scc(C(=O)NS(C)(=O)=O)c2n1` (stereo not drawn) [Compound 55], the pIC50 in assay [1] is greater than 5.30; in assay [2], greater than 6.00; on human eIF4E protein, greater than 7.00.
